# In US20240252677A1, “ONE-COMPONENT DELIVERY SYSTEM FOR NUCLEIC ACIDS” (The Trustees of the University of Pennsylvania, priority 2021, published 2024):
# Columns and labels:
# [1] = Dimensions (size, PDI) of DNPs co-assembled from IAJDs and Luc-mRNA by DLS; format: physicochemical
# Description: Dynamic Light Scattering (DLS) for the DNPs was performed in buffer with a Malvern Instruments particle sizer (Zetasizer Nano S, Malvern Instruments, UK) equipped with 4 mW He—Ne laser 633 nm and avalanche photodiode positioned at […] to the beam and temperature-controlled cuvette holder. Instrument parameters were determined automatically along with measurement times.
# Formulation of DNPs Containing mRNA-Luc: IAJDs were dissolved in ethanol with various initial concentrations (5-160 mg/mL). Nucleoside-modified mRNA encoding firefly luciferase (mRNA-Luc) was dissolved in water with various initial concentrations (1-4 mg/mL). 12.5 μL of mRNA solution was placed into a clean RNAs free eppendorf (1.5 mL) and mixed with 463 μL of citrate buffer (10 mM, pH 3.0)/acetate buffer (10 mM). For encapsulation of mRNA into IAJDs, 25 μL of IAJDs of the ethanol stock solution was rapidly injected into mRNA solution in citrate or acetate buffer followed by vortex for 5 seconds.
# (§1) Dynamic Light Scattering (DLS) for the sizes and polydispersities of DNPs was performed on a Malvern Instruments particle sizer (Zetasizer Nano S, Malvern Instruments, UK) equipped with 4 mW He—Ne laser 633 nm and avalanche photodiode positioned at 1750 to the beam and temperature-controlled cuvette holder. Instrument parameters were determined automatically along with measurement times. Sample solution (0.4 mL) was placed in a semi-micro cuvette (1.6 mL, polystyrene, 10×10×45 mm, manufactured by Greiner Bio-One) and the measurements were performed at 23° C.
# Formulation of DNPs obtained by co-assembly of IAJDs and Luc-mRNA was performed as follows. IAJDs were dissolved in ethanol with an initial concentration of 80 mg/mL. Nucleoside-modified mRNA encoding firefly luciferase (Luc-mRNA) was dissolved in UltraPure DNase/RNase-free distilled water with an initial concentration of 4.0 mg/mL. 12.5 μL of Luc-mRNA solution was placed into a clean RNAs free eppendorf (1.5 mL) and 463 μL acetate buffer (10 mM, pH 4.0) was added. Then, 25 μL of IAJD in the ethanol stock solution was rapidly injected into the Luc-mRNA solution in acetate buffer followed by vortex for 5 seconds.
# as §1, with “dimensions (sizes” for “sizes”, “polydispersities)” for “polydispersities”, “175°” for “1750”, “set up” for “determined”, “(c.a. 0.4” for “(0.4”, “mm,” for “mm, manufactured by”
# Formulation of DNPs Co-assembled from IAJDs and Luc-mRNA: nucleoside-modified mRNA encoding firefly luciferase (Luc-mRNA) was dissolved in UltraPure DNase/RNase-free distilled water with an initial concentration of 4.0 mg/mL. IAJD molecules were dissolved in ethanol with an initial concentration of 80 mg/mL. 12.5 μL of Luc-mRNA solution was taken and placed into a clean RNAs free eppendorf (1.5 mL). Then 463 μL of acetate buffer (10 mM, pH 4.0) was added. Afterwards, 25 μL of IAJD in the ethanol stock solution was taken and rapidly injected into the above Luc-mRNA solution in acetate buffer followed by vortex for 5 seconds.
# BALB/c mice = test: In vivo mRNA delivery in mice with DNPs, whole-body bioluminescence imaging (IVIS); conditions: mice; for Total flux (p/s): IVIS imaging 4 h after Luc-mRNA-IAJD injection
# Description: (§2) The exposure time was 1 min.
# Luminescence characterization for in vivo transfection experiments employed bioluminescence imaging with an IVIS Spectrum imaging system (PerkinElmer, Waltham, MA). Mice were anesthetized with 3% of isoflurane (Piramal Healthcare Limited) and intraperitoneally (i.p.) administered with D-luciferin (Regis Technologies) at a dose of 150 mg/kg of body weight. Ten minutes post administration of D-luciferin, mice were placed on the imaging platform while being maintained on isoflurane via a nose cone and imaged using an exposure time of 60 seconds. […] To quantify luminescent flux, an oval ROI was placed over each organ of interest and analyzed.
# (§3) Tissue luminescence signal was measured on the IVIS imaging system using an exposure time of 60 seconds using medium binning (binning=8) to ensure that the signal obtained was within operative detection range. […] Bioluminescence imaging was performed as described above.
# Luminescence Characterization for In Vivo Transfection Experiments: bioluminescence imaging was performed with an IVIS Spectrum imaging system (PerkinElmer, Waltham, MA).
# lung = test: In vivo mRNA delivery, IVIS imaging of organs: lung; design: species or system mice; conditions: Table 14
# Description: as §2, §3
# Tissue luminescence signal was measured on the IVIS imaging system using a certain exposure time (60, 30 or 15 seconds) and medium binning (binning=8) to ensure that the signal obtained was within operative detection range.
# [2] = Stability of DNPs by DLS after storage at 5° C.; format: physicochemical; conditions: storage time 2 days; CIAJD 4.0 mg/mL; CLuc-mRNA 0.1 mg/mL; acetate buffer pH 4.0
# Description: The stability of the DNPs as assayed by DLS. All the samples are prepared in acetate buffer. The stabilities of the constructs were ranked: Excellent (in bold)—the original sizes and distribution remains almost the same after storage; Good—the original relatively big sizes became smaller or broad size distribution became narrower; Not stable—the original relatively big sizes or broad size distribution remained almost the similar level, or the original relatively small sizes became bigger or narrow size distribution became broader.
# [3] = Acetate buffer 10 mM pH 4.0, CIAJD 4 mg/mL, CLuc-mRNA 0.05 mg/mL
# [4] = Acetate buffer 10 mM pH 5.2, CIAJD 4 mg/mL, CLuc-mRNA 0.10 mg/mL
# [5] = Citrate buffer 10 mM pH 3.0, CIAJD 4 mg/mL, CLuc-mRNA 0.05 mg/mL
# [6] = DNP for in vivo, CIAJD 4.0 mg/mL, CLuc-mRNA 0.1 mg/mL, acetate buffer pH 5.2
# [7] = Table 12, DNPs, IAJD 4 mg/mL + Luc-mRNA 0.10 mg/mL, acetate buffer 10 mM pH 4.0
# [8] = Table 13, DNPs, IAJD 4 mg/mL + Luc-mRNA 0.10 mg/mL, acetate buffer pH 4.0
# [9] = Table 14, DNPs, IAJD 4 mg/mL + Luc-mRNA 0.10 mg/mL, acetate buffer pH 4.0
# [10] = Table 13, IVIS imaging 5 h after injection
# [11] = Table 13, IVIS imaging 6 h after injection
# [12] = Acetate buffer 10 mM pH 4.0, CIAJD 4 mg/mL, CLuc-mRNA 0.10 mg/mL
# [13] = DNP for in vivo, CIAJD 4.0 mg/mL, CLuc-mRNA 0.1 mg/mL, acetate buffer pH 4.0
"PDI [1, 7]","Size (d, nm) [1, 7] [nm]","PDI [1, 8]","Size (d, nm) [1, 8] [nm]","PDI [1, 9]","Size (d, nm) [1, 9] [nm]",Compound,also measured
0.275,88,0.275,88,0.275,88,"CCCCC(CC)COc1ccc(COC(=O)CCCN2CCN(C)CC2)cc1OCC(CC)CCCC (stereo not drawn) [IAJD 103, 3,4-Bis((2-ethylhexyl)oxy)benzyl 4-(4-methylpiperazin-1-yl)butanoate]","Organs with luminescence: lung (weak/strong) (lung; imaging 6 h after injection): Lung (strong),; Organs with luminescence (BALB/c mice; [11]): Lung, spleen"
0.334,214,0.334,214,0.334,214,"CCCCCCCCCCCCCCOc1cc(CNC(=O)CCCN2CCN(C)CC2)cc(OCCCCCCCCCCCCCC)c1 [IAJD 108, N-(3,5-bis(tetradecyloxy)benzyl)-4-(4-methylpiperazin-1-yl)butanamide]","Organs with luminescence: lung (weak/strong) (lung; imaging 6 h after injection): Lung (strong),; Organs with luminescence (BALB/c mice; [11]): Lung, spleen"

# Second part, the compound before the results:
Compound,"PDI [1, 7]","Size (d, nm) [1, 7] [nm]","PDI [1, 8]","Size (d, nm) [1, 8] [nm]","PDI [1, 9]","Size (d, nm) [1, 9] [nm]",also measured
"3,5-Bis(dodecyloxy)benzyl 3-(4-methylpiperazin-1-yl)propanoate [IAJD 84]",–,–,–,–,–,–,"PDI [1, 3]: 0.493; Size (d, nm) [1, 3]: 106 nm; PDI [1, 4]: 0.311; Size (d, nm) [1, 4]: 199 nm; PDI [1, 5]: 0.283; Size (d, nm) [1, 5]: 192 nm; PDI [1, 6]: 0.311; Size (d, nm) [1, 6]: 199 nm; Organs with luminescence (BALB/c mice; 4 h from injection, CIAJD 4.0 mg/mL, CLuc-mRNA 0.1 mg/mL, acetate buffer pH 5.2): Lung, spleen"
"CCCCCCCCCCCCOc1cc(COC(=O)CCCN2CCCCC2)cc(OCCCCCCCCCCCC)c1 [IAJD 65, 3,5-Bis(dodecyloxy)benzyl 4-(piperidin-1-yl)butanoate]",0.249,241,0.249,241,0.249,241,Total flux (p/s) (BALB/c mice; Table 13): 0 p/s; Total flux (p/s) (BALB/c mice; Table 14): 0 p/s
"CCCCCCCCCCCCOc1ccc(COC(=O)CCCN2CCN(C)CC2)cc1OCCCCCCCCCCCC [IAJD 78, 3,4-Bis(dodecyloxy)benzyl 4-(4-methylpiperazin-1-yl)butanoate]",1.000,629,1.000,629,1.000,629,"Organs with luminescence: lung (weak/strong) (lung; imaging 5 h after injection): Lung (strong),; Organs with luminescence (BALB/c mice; [10]): Lung, spleen"
"CCCCCCCCCCCCOCC(COCCCCCCCCCCCC)(COCCCCCCCCCCCC)COC(=O)CCCN1CCN(C)CC1 [IAJD 82, 3-(Dodecyloxy)-2,2-bis((dodecyloxy)methyl)propyl 4-(4-methylpiperazin-1-yl)butanoate]",0.144,162,0.144,162,0.144,162,Organs with luminescence (BALB/c mice; [10]): spleen
"Diheptyl 5,5′-((5-(((4-(4-methylpiperazin-1-yl)butanoyl)oxy)methyl)-1,3-phenylene)bis(oxy)) dipentanoate [IAJD 85]",–,–,–,–,–,–,"PDI [1, 3]: 0.352; Size (d, nm) [1, 3]: 99 nm; PDI [1, 12]: 0.254; Size (d, nm) [1, 12]: 115 nm; PDI [1, 5]: 0.361; PDI [1, 13]: 0.254; Size (d, nm) [1, 13]: 115 nm; PDI after storage [2]: 0.271; Size (d, nm) after storage [2]: 114 nm"
